Columns and labels:
Test in all cases: biochemical
Parameters in all cases: DiscoveRx KINOMEscan competition binding, percent of DMSO control signal at 100 nM
Conditions in all cases: read-out: Fig. 4a / Percent Control / Compound 1; percent of DMSO control, competition binding
QSK = molecular target: T1, QSK (Homo sapiens, UniProt Q9Y2K2)
T1 construct: gene SIK3

[1] = molecular target: EGFR(L747-S752del, P753S) (Homo sapiens, UniProt P00533, DEL747-752/P753S)
[2] = molecular target: T2, RPS6KA5(Kin.Dom.1-N-terminal) (Homo sapiens, UniProt O75582)
T2 construct: Kin.Dom.1-N-terminal

PRKG1 = PRKG1 (Homo sapiens, UniProt Q13976)
FRK = FRK (Homo sapiens, UniProt P42685)
ERK4 = molecular target: T3, ERK4 (Homo sapiens, UniProt P31152)
T3 construct: gene MAPK4

[3] = molecular target: T4, ABL1(Q252H)-phosphorylated (Homo sapiens, UniProt P00519, Q252H)
T4 construct: phosphorylated

PDGFRB = PDGFRB (Homo sapiens, UniProt P09619)
ALK(C1156Y) = ALK(C1156Y) (Homo sapiens, UniProt Q9UM73, C1156Y)
ANKK1 = ANKK1 (Homo sapiens, UniProt Q8NFD2)
EPHA7 = EPHA7 (Homo sapiens, UniProt Q15375)
SLK = SLK (Homo sapiens, UniProt Q9H2G2)
PCTK3 = molecular target: T5, PCTK3 (Homo sapiens, UniProt Q07002)
T5 construct: gene CDK18

MEK4 = molecular target: T6, MEK4 (Homo sapiens, UniProt P45985)
T6 construct: gene MAP2K4

ACVR2B = ACVR2B (Homo sapiens, UniProt Q13705)
DRAK1 = molecular target: T7, DRAK1 (Homo sapiens, UniProt Q9UEE5)
T7 construct: gene STK17A

DCAMKL2 = molecular target: T8, DCAMKL2 (Homo sapiens, UniProt Q8N568)
T8 construct: gene DCLK2

ALK(L1196M) = ALK(L1196M) (Homo sapiens, UniProt Q9UM73, L1196M)
OSR1 = molecular target: T9, OSR1 (Homo sapiens, UniProt O95747)
T9 construct: gene OXSR1

RIOK3 = RIOK3 (Homo sapiens, UniProt O14730)
TRKA = molecular target: T10, TRKA (Homo sapiens, UniProt P04629)
T10 construct: gene NTRK1

SIK2 = SIK2 (Homo sapiens, UniProt Q9H0K1)
CDK8 = CDK8 (Homo sapiens, UniProt P49336)
PIK3CA(H1047Y) = PIK3CA(H1047Y) (Homo sapiens, UniProt P42336, H1047Y)
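Further: KINOMEscan kinase panel binding assay, signal normalized between DMSO as 100% and a positive control compound as 0%.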

T9 sequence (O95747 whole entry): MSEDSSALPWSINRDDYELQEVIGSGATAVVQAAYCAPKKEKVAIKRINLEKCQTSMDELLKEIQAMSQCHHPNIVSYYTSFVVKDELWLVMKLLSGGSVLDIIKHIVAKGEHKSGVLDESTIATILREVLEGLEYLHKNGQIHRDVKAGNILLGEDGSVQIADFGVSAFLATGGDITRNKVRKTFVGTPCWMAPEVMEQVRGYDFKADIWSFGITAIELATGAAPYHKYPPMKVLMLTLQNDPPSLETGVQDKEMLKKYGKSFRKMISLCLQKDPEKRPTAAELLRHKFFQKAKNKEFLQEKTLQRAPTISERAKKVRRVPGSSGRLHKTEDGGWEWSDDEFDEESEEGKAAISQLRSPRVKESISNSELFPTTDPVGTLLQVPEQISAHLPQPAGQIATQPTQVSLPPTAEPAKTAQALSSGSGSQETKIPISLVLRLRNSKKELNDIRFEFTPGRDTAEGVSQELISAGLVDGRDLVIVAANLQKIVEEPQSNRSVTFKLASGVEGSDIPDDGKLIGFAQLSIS
T7 sequence (Q9UEE5 whole entry): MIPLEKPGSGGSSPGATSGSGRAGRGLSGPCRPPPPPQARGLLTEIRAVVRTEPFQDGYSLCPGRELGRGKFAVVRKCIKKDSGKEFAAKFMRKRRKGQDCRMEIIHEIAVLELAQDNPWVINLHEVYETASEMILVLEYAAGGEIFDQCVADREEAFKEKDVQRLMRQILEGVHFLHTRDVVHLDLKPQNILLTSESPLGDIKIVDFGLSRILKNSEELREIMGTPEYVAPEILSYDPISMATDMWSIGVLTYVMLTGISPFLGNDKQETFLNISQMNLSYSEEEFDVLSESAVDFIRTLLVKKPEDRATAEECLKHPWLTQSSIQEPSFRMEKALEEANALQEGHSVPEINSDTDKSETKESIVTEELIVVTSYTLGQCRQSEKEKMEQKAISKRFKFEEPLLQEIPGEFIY
Chain of ANKK1 (Q8NFD2 whole entry): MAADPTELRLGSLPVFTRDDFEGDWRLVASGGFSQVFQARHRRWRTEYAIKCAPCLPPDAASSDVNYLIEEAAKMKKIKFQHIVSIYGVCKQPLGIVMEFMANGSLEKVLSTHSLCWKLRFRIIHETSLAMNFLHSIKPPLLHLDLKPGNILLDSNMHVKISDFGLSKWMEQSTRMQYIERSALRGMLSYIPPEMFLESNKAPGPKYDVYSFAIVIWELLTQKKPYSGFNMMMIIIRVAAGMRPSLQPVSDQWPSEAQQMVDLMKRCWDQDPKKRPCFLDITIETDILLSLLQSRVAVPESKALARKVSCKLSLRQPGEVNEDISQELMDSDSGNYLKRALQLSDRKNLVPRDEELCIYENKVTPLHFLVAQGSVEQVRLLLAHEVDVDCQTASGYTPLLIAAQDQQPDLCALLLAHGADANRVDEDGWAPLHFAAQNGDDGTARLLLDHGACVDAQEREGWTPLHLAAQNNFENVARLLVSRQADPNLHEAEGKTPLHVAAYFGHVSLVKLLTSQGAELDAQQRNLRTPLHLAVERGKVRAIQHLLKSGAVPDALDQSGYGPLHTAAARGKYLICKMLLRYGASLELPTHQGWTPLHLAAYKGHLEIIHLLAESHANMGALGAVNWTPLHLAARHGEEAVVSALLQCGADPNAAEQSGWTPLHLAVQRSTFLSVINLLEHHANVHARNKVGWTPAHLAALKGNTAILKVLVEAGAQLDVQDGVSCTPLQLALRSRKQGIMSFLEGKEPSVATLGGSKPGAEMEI
Chain of FRK (P42685 whole entry): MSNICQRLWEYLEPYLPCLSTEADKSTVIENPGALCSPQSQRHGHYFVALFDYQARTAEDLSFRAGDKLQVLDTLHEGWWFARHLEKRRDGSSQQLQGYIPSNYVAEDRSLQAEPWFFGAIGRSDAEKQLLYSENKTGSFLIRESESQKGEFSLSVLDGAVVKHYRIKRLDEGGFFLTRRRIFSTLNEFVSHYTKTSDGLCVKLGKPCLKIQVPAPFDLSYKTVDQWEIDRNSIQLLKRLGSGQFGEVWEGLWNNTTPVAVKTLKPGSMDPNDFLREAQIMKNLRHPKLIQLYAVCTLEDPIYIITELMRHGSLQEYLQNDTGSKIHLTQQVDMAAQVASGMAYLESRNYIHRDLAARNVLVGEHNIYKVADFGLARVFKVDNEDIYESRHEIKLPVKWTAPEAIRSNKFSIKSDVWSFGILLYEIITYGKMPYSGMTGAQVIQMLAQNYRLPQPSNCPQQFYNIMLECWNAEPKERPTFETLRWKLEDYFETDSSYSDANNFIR
T8 sequence (Q8N568 whole entry): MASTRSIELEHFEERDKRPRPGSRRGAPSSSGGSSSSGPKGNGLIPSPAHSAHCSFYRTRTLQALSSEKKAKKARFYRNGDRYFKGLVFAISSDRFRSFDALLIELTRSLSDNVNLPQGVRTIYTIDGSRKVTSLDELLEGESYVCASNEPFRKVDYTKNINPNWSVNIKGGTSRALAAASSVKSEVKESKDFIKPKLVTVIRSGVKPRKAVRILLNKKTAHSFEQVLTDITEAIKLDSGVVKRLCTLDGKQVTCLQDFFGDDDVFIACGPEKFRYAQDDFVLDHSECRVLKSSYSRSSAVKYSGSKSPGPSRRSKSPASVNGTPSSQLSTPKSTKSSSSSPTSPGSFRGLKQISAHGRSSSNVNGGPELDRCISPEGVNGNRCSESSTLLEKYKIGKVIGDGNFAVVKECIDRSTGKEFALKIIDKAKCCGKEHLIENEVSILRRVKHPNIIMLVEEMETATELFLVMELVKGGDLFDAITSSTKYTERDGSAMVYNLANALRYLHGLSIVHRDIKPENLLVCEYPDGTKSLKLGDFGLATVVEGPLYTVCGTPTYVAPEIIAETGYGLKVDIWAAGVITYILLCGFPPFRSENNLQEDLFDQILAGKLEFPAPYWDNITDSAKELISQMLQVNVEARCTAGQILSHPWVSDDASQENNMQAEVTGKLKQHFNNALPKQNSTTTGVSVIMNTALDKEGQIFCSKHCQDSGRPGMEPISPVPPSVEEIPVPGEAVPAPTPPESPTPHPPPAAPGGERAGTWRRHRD
T3 sequence (P31152 whole entry): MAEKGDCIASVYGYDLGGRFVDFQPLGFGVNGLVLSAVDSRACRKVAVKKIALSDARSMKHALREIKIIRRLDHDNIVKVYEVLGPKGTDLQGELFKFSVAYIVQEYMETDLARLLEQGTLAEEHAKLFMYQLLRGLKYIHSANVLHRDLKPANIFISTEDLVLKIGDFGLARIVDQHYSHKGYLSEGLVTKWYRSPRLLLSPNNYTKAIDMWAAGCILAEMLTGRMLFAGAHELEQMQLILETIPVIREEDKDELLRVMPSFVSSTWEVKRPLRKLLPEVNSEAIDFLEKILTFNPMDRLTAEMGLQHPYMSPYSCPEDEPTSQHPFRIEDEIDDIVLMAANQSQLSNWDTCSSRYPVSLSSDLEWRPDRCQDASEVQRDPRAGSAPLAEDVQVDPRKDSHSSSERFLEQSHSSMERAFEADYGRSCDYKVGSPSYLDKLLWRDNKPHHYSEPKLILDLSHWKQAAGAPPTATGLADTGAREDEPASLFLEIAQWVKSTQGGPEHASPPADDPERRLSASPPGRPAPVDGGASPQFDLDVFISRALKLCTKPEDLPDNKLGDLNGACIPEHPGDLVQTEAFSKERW
T10 sequence (P04629 whole entry): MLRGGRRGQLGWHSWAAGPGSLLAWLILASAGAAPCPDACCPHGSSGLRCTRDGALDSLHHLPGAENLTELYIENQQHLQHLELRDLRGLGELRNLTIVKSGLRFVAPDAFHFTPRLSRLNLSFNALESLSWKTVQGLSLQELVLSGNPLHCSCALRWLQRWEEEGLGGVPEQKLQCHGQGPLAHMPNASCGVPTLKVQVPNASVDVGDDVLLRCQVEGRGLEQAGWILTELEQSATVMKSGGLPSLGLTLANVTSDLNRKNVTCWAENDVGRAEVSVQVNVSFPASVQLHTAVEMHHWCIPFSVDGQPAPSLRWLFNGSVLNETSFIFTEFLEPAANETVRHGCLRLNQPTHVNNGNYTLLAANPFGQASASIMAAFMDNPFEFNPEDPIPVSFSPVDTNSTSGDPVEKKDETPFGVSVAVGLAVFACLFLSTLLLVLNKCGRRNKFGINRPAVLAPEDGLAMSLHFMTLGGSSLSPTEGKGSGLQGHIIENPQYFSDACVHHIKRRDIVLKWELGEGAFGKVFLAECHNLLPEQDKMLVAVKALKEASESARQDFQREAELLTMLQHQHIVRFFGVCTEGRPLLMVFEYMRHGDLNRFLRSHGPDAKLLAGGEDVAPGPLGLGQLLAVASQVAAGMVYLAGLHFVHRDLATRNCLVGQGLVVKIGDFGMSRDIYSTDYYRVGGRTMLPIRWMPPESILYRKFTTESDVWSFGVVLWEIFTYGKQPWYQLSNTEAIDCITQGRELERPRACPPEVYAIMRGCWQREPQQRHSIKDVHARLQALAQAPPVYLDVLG
Chain of CDK8 (P49336 whole entry): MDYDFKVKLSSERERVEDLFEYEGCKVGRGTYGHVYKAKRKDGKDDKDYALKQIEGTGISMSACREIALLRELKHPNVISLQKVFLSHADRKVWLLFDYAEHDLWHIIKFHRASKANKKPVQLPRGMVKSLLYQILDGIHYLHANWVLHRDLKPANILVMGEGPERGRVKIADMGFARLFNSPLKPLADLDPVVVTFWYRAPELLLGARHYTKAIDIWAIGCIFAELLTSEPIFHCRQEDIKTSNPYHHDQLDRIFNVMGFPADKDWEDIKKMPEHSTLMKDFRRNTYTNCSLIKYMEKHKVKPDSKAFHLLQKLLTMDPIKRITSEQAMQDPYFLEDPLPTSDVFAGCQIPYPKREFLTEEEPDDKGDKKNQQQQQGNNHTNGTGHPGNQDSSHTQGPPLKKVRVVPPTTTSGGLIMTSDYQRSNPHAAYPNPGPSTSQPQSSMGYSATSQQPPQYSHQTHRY

Question: With `Cc1cnc2nc1Nc1cccc(c1)COCc1cc(ccc1OCCN1CCCC1)N2` [Compound 1] as the compound, how does the remaining binding at 0.1 µM (QSK) read?
Answer: Its remaining binding at 0.1 µM is 63%.

Question: And the remaining binding at 0.1 µM [1]?
Answer: Its remaining binding at 0.1 µM is 80%.

Question: What about the remaining binding at 0.1 µM [2] of the same compound?
Answer: Its remaining binding at 0.1 µM is 83%.

Question: What about the remaining binding at 0.1 µM (PRKG1) of the same compound?
Answer: Its remaining binding at 0.1 µM is 100%.

Question: And the remaining binding at 0.1 µM (FRK)?
Answer: Its remaining binding at 0.1 µM is 84%.

Question: What about the remaining binding at 0.1 µM (ERK4) of the same compound?
Answer: The remaining binding at 0.1 µM was 81%.

Question: What about the remaining binding at 0.1 µM [3] of the same compound?
Answer: The remaining binding at 0.1 µM was 59%.

Question: And the remaining binding at 0.1 µM (PDGFRB)?
Answer: The remaining binding at 0.1 µM was 51%.

Question: What about the remaining binding at 0.1 µM (ALK(C1156Y)) of the same compound?
Answer: Its remaining binding at 0.1 µM is 40%.

Question: What about the remaining binding at 0.1 µM (ANKK1) of the same compound?
Answer: The remaining binding at 0.1 µM was 86%.

Question: What about the remaining binding at 0.1 µM (EPHA7) of the same compound?
Answer: The remaining binding at 0.1 µM was 98%.

Question: And the remaining binding at 0.1 µM (SLK)?
Answer: Its remaining binding at 0.1 µM is 70%.

Question: And the remaining binding at 0.1 µM (PCTK3)?
Answer: The remaining binding at 0.1 µM was 85%.

Question: And the remaining binding at 0.1 µM (MEK4)?
Answer: Its remaining binding at 0.1 µM is 92%.

Question: And the remaining binding at 0.1 µM (ACVR2B)?
Answer: Its remaining binding at 0.1 µM is 96%.

Question: What about the remaining binding at 0.1 µM (DRAK1) of the same compound?
Answer: The remaining binding at 0.1 µM was 100%.

Question: And the remaining binding at 0.1 µM (DCAMKL2)?
Answer: Its remaining binding at 0.1 µM is 96%.

Question: What about the remaining binding at 0.1 µM (ALK(L1196M)) of the same compound?
Answer: The remaining binding at 0.1 µM was 60%.

Question: And the remaining binding at 0.1 µM (OSR1)?
Answer: Its remaining binding at 0.1 µM is 66%.

Question: What about the remaining binding at 0.1 µM (RIOK3) of the same compound?
Answer: The remaining binding at 0.1 µM was 79%.

Question: What about the remaining binding at 0.1 µM (TRKA) of the same compound?
Answer: Its remaining binding at 0.1 µM is 26%.

Question: And the remaining binding at 0.1 µM (SIK2)?
Answer: The remaining binding at 0.1 µM was 94%.

Question: And the remaining binding at 0.1 µM (CDK8)?
Answer: Its remaining binding at 0.1 µM is 100%.

Question: And the remaining binding at 0.1 µM (PIK3CA(H1047Y))?
Answer: The remaining binding at 0.1 µM was 91%.

Reference: PMC10382584, “Macrocyclization of linear molecules by deep learning to facilitate macrocyclic drug candidates discovery” (Nature Communications, 2023)
